# Tests used:
# cellules de Langerhans = experiment: Migration of freshly isolated, DNSB-sensitised Langerhans cells through Matrigel in a two-compartment culture chamber; details: for inhibition de la migration des CL induite par le DNSB (result in words): compound 1 µM
# Description: Des suspensions de cellules épidermiques ont été obtenues par traitement enzymatique (0,05% trypsine, pendant 18h à +4°C) de fragments de peau humaine normale issus de chirurgie plastique. Les suspensions obtenues contiennent en moyenne 2 à 4% de CL. L'obtention de suspensions contenant en moyenne 70% de CL est basée sur le principe de la centrifugation sur gradient de densité (Lymphoprep™) et élimination des kératinocytes.
# Le milieu de base choisi pour l'ensemble de l'étude a été le RPMI 1640 (Gibco BRL, France).
# On a utilisé comme agent sensibilisateur le DNSB (Sigma Aldrich), forme soluble du DNCB (dinitro-chloro-benzène), solubilisé en RPMI-BSA et utilisé à la concentration de 50 µM.
# Un système de chambre de culture à deux compartiments (Falcon, Becton Dickinson, France) a été utilisé. Le compartiment supérieur est séparé du compartiment inférieur par une membrane de porosité 8 µm, sur laquelle sont déposées 50 µg/cm^2 de Matrigel. La membrane est alors recouverte de protéines formant un film équivalent à une membrane basale (laminine, collagène IV, nidogène, entactine, héparane sulfate protéoglycanes). Les cellules reprises dans le milieu RPMI-BSA seul ou en présence des différents produits sont déposées dans le compartiment supérieur. Dans le compartiment inférieur, est ajouté du surnageant de culture de fibroblastes humains normaux. Après 18h d'incubation à 37°C, le nombre de cellules vivantes ayant traversé le Matrigel et se trouvant dans le compartiment inférieur est compté sous microscope (les CL sont facilement identifiables par leur forme dendritique). Chaque essai est réalisé en triplicate.
# Dans l'expression des résultats, la capacité migratoire des CL contrôle (non traitées et non sensibilisées) est arbitrairement fixée à 1.
# cellules dendritiques = experiment: FITC-induced migration of dendritic cells from ear skin to draining lymph nodes in mice (flow cytometry); format: in vivo, souris
# Text: Le FITC (Fluorescéine isothiocyanate, Sigma, St. Louis, MO) a été dilué extemporanément dans un mélange acétone : dibutylphthalate (1:1).
# L'oxazolidinone B et le LU105 (LU 105 est un inhibiteur de MMPs, correspondant à un extrait peptidique de lupin blanc commercialisé par la Société Expanscience sous le nom de marque Actimp 193®) ont été fournis par les "Laboratoires Expanscience", et formulés seuls ou en association dans un véhicule inerte compatible avec une application topique, tel que décrit à l'exemple 1 ci-dessus [oxazolidinone B (0,5%) ± LU105 (2%)]. Les différentes formulations ont été appliquées sur les oreilles de souris deux fois par jour pendant 4 jours consécutifs. Trois heures après la dernière application, 1,5% de FITC sont appliqués sur les deux oreilles (l'une traitée et l'autre non traitée (Contrôle)).
# L'effet des deux molécules a été évalué in vivo chez la souris. La peau des deux oreilles est badigeonnée avec 1,5% FITC (2X5 µl). 24 h après, les souris sont sacrifiées et une suspension cellulaire est préparée à partir des ganglions auriculaires et cervicaux (ganglions drainants, ci-après dénommés GL) ou à partir des ganglions popliteaux (ganglions non drainants, contrôle négatif). Les tissus ont été découpés et les cellules sont séparées par filtration (filtre […], Falcon; Becton Dickinson), puis lavés. […]
smiles,measurement,setting,value
"CCCCCCCCCCCCC1COC(=O)N1 (centres unmarked) [oxazolidinone A, 4-dodécyl-oxazolidin-2-one]",inhibition de la migration des CL induite par le DNSB (result in words),cellules de Langerhans; Example 3,inhibent de manière significative
"CCCCCCCCCCCCC1COC(=O)N1CCCCCCCCCCCC (centres unmarked) [oxazolidinone C, 3,4-didodécyl-oxazolidin-2-one]",inhibition de la migration des CL induite par le DNSB (result in words),cellules de Langerhans; Example 3,inhibent de manière significative
"CCCCCCCCCCCCC1NC(=O)OC1CCCCCCCCCCCC (centres unmarked) [oxazolidinone B, 4,5-didodécyl-oxazolidin-2-one]",Inhibition de la migration en %,"cellules dendritiques; 0,5% topical on mouse ears, twice daily for 4 days, FITC 1,5%, read 24 h later",28%
same,inhibition de la migration des CD vers les GL (result in words),"cellules dendritiques; mice sensitised with FITC, oxazolidinone B alone",inhibe de manière significative
same,inhibition de la migration des CL induite par le DNSB (result in words),cellules de Langerhans; Example 3,inhibent de manière significative
same,inhibition de la migration des CL sensibilisées (result in words),"cellules de Langerhans; Example 4, tested separately",inhibent de manière significative
"O=[N+]([O-])c1ccc(S(=O)(=O)O)c([N+](=O)[O-])c1 [DNSB, reference compound]",stimulation de la migration des CL par rapport aux cellules contrôle,"cellules de Langerhans; Example 3, DNSB 50 µM alone",+113%
same,Index de migration,"cellules de Langerhans; Example 4, cells sensitised with DNSB alone, control cells = 1","1,78"

# Source: patent EP2266530A1, “Oxazolidinones for cosmetic cutaneous use” (Laboratoires Expanscience, priority 2002, dated 2004)
